Reference: patent US20060270591A1, “Androgen receptor coregulators” (priority 2002, published 2006)

Tests used:
[1] = molecular target: T1, GR (Homo sapiens, UniProt P04150); assay: GR transactivation with ARA70 in DU145 cells (Example 3); format: cell-based; design: expressed in transfected cells; host or cells: DU145
T1 sequence (P04150 1-777): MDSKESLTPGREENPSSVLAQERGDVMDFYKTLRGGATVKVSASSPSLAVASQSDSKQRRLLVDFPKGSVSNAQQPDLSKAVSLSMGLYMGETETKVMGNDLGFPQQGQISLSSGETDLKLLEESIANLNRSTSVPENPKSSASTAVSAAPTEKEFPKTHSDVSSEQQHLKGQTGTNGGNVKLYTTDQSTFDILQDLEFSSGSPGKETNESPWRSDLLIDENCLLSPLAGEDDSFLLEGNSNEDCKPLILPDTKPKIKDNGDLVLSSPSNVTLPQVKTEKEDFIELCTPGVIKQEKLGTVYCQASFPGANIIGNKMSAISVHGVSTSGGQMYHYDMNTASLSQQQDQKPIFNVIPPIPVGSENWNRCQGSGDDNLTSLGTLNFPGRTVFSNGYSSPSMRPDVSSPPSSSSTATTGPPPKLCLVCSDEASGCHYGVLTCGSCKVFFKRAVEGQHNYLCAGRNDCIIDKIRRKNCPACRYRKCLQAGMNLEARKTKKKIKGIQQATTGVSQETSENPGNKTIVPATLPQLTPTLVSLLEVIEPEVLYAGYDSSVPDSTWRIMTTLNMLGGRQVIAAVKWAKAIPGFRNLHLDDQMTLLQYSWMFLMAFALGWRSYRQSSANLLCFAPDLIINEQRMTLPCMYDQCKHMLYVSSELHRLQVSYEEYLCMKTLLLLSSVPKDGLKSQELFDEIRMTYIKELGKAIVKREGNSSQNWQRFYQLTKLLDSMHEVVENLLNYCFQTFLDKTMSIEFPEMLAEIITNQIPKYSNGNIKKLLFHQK
Method: 411. Human prostate cancer DU145 and PC-3 cells were maintained in […] (DMEM) containing penicillin (25 U/ml), streptomycin (25 μg/ml), and 5% fetal calf serum (FCS). Human LNCaP cells were maintained in RPMI containing penicillin (25 U/ml), streptomycin (25 μg/ml), and 10% FCS. Transfections were performed using the calcium phosphate precipitation method, as previously described (Dynlacht et al. (1991) Cell 66, 563-576). Briefly, 4×10^5 cells were plated on 60-mm dishes 24 hours before transfection, and the medium was changed to DMEM with 5% charcoal-dextran stripped FCS (CS-FBS) one hour before transfection. Transfection medium contained a constant amount of reporter plasmid and indicated amounts of pSG5-receptor, ARA70, or pCMX-GAL fusion construct using pSG5 as a carrier to provide equal amounts of transfected DNA. Twenty-four hours after transfection, the medium was changed again, and the cells were treated with DHT or other treatments. After another 24 hours, the cells were harvested for chloramphenicol transferase (CAT) or luciferase assays. At least three independent experiments were carried out in each case. Superfect (Qiagen) was used for transfection in LNCaP cells. The transfection conditions followed the manufacturer's protocol. […]

[2] = tested on: AR; assay: AR transactivation dual-luciferase assay with supervillin (Example 6); format: cell-based, human
AR, sequence (P10275 with tags, fused parts or gaps DEL79-80/DUP473-473): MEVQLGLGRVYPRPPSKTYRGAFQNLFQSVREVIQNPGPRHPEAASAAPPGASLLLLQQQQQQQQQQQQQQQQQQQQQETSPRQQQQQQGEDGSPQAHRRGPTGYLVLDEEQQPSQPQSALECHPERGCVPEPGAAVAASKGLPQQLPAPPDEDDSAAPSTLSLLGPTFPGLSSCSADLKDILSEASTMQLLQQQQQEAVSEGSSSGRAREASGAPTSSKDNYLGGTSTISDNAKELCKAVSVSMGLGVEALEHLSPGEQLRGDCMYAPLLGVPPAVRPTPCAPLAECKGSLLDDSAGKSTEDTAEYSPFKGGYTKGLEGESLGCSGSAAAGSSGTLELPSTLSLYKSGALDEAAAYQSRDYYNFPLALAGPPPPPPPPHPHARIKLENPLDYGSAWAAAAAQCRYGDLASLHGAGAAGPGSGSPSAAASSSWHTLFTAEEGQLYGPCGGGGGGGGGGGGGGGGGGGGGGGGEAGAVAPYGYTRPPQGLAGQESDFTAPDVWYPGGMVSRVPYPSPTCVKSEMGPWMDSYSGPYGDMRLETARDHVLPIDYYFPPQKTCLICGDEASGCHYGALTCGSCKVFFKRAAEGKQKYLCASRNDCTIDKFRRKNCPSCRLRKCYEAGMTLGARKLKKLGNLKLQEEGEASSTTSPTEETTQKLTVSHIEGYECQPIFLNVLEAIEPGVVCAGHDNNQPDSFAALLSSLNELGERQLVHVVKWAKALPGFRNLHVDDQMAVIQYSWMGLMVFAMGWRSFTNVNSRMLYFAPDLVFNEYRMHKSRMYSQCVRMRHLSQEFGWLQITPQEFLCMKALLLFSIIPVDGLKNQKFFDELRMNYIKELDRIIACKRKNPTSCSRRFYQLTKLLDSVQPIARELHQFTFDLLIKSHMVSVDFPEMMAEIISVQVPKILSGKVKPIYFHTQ
Method: In AR transactivation activity assays, transfections were performed using SuperFect (Qiagen, Chatsworth, Calif.) following protocols described in manual provided by Qiagen. Briefly, cells were plated on 35 mm dishes and after 24 h were transfected using the SuperFect kit. The total DNA amount was adjusted to 2 μg with pSG5 or pEGFP vectors. The medium was changed to DMEM with 10% CD-FBS 2 h after transfection. After 24 h, the DMEM with 10% CD-FBS was changed again, and the cells were treated with various steroids. Cells were harvested after 24 h for dual-luciferase assay as described in protocol provided by Promega. At least three independent experiments were carried out in each case.

Row | enhancement of GR transactivation [1] | enhancement of AR transactivation ([2]; C2C12 muscle cells, bSV:AR plasmids 25:1 and 50:1, DHT) | AR transactivation with EGFP-bSV construct ([2]; COS-1 cells, 10 nM DHT, MMTV-Luc) [fold] | effect on Adiol induced AR transactivation ([2]; COS-1 cells, 10 nM steroid) | effect on E2- or HF-induced AR transactivation ([2]; COS-1 cells, 10 nM steroid) | effect on T and DHT induced AR transactivation ([2]; COS-1 cells, 10 nM steroid) | Substance
1 | 2-3 fold | – | – | – | – | – | ARA70: ligand-enhanced AR coregulator, full length ARA70
2 | – | 3-8 fold | 132 | slightly enhances | marginal effect | significantly enhances | SV: supervillin, 205 kDa actin binding protein; bovine SV (a.a. 1-1792) used in reporter assays
